Values joined by “and” are separate entries in the source; they are usually repeats but may differ in a detail not shown here. Identical values can stand only once.
Tested on: DOHH2 cells
Experiment: RT2 Glucocorticoid signaling PCR array, DOHH2 cell line (Table 4b)
Type: cell-based
Settings: DOHH2, 4 days

C[C@]12C=CC(=O)C=C1CC[C@@H]1[C@@H]2[C@@H](O)C[C@@]2(C)[C@H]1CC[C@]2(O)C(=O)CO [Prednisolone, prednisolone]
ACTB Ct Values: 14.721 | ADARB1 Ct Values: 33.560 | AFF1 Ct Values: 23.992 | AK2 Ct Values: 20.262 | AMPD3 Ct Values: 27.535 | ANGPTL4 Ct Values: 31.538 | ANXA4 Ct Values: 24.997 | ARID68 Ct Values: 23.885 | ASPH Ct Values: 23.369 | ATF4 Ct Values: 19.313 | B2M Ct Values: 18.884 | BCL6 Ct Values: 21.801 | BMPER Ct Values: 39.378 | CEBPA Ct Values: 32.188 | CEBPB Ct Values: 24.317 | COL4A2 Ct Values: 38.993 | CREB1 Ct Values: 22.890 | CREB3 Ct Values: 24.865 | CREB3L4 Ct Values: 24.616 | CTGF Ct Values: 33.728 | CYB561 Ct Values: 39.582 | DDIT4 Ct Values: 24.105 | DUSP1 Ct Values: 27.866 | EDN1 Ct Values: 32.263 | EHD3 Ct Values: 31.098 | ERRFI1 Ct Values: 32.635 | FK8PS Ct Values: 20.912 | FOSL2 Ct Values: 31.543 | GAPDH Ct Values: 16.551 | GDPD1 Ct Values: 27.884 | GHRHR Ct Values: 36.095 | GLUL Ct Values: 34.574 | GOT1 Ct Values: 23.532 | H6PD Ct Values: 24.696 | HNRPLL Ct Values: 33.284 | HPRT1 Ct Values: 21.777 | IL1RN Ct Values: 33.560 | IL6 Ct Values: 34.758 | KLF9 Ct Values: 28.547 | KLF13 Ct Values: 22.546 | LOX Ct Values: 34.158 | MERTK Ct Values: 32.892 | NFKBIA Ct Values: 22.830 | NR3C1 Ct Values: 22.794 | PDCD7 Ct Values: 23.552 | PDGFRB Ct Values: 34.934 | PDP1 Ct Values: 25.682 | PER1 Ct Values: 25.142 | PER2 Ct Values: 24.159 | PIK3R1 Ct Values: 23.850 | PLD1 Ct Values: 37.120 | PLEKHF1 Ct Values: 29.414 | POU2F1 Ct Values: 24.648 | POU2F2 Ct Values: 22.489 | RASA3 Ct Values: 27.803 | RGS2 Ct Values: 25.514 | RHOB Ct Values: 33.162 | RPLP0 Ct Values: 15.128 | SESN1 Ct Values: 22.839 | SGK1 Ct Values: 29.628 | SLC10A6 Ct Values: 36.176 | SLC19A2 Ct Values: 25.455 | SLC22A5 Ct Values: 28.915 | SNTA1 Ct Values: 25.124 | SPHK1 Ct Values: 29.971 | SPSB1 Ct Values: 26.911 | STAT5A Ct Values: 23.565 | STAT5B Ct Values: 22.632 | TBL1XR1 Ct Values: 21.304 | TNF Ct Values: 31.956 | TSC22D3 Ct Values: 23.310 | USP2 Ct Values: 23.501 | USPS4 Ct Values: 26.683 | VDR Ct Values: 26.847 | VLDLR Ct Values: 28.584 | ZFP36 Ct Values: 24.270 | ZHX3 Ct Values: 24.418 | ZNF281 Ct Values: 23.828 | PPC Ct Values (array control, three lines): 18.684 and 18.699 and 19.076 | RTC Ct Values (array control, three lines): 21.449 and 21.464 and 21.483 | ADARB1 ΔCT (B2M) (normalized to B2M): 14.676 | AFF1 ΔCT (B2M) (normalized to B2M): 5.108 | AK2 ΔCT (B2M) (normalized to B2M): 1.378 | AMPD3 ΔCT (B2M) (normalized to B2M): 8.651 | ANGPTL4 ΔCT (B2M) (normalized to B2M): 12.654 | ANXA4 ΔCT (B2M) (normalized to B2M): 6.113 | ARID68 ΔCT (B2M) (normalized to B2M): 5.001 | ASPH ΔCT (B2M) (normalized to B2M): 4.485 | ATF4 ΔCT (B2M) (normalized to B2M): 0.429 | B2M ΔCT (B2M) (normalized to B2M): 0.000 | BCL6 ΔCT (B2M) (normalized to B2M): 2.917 | BMPER ΔCT (B2M) (normalized to B2M): 20.494 | CEBPA ΔCT (B2M) (normalized to B2M): 13.304 | CEBPB ΔCT (B2M) (normalized to B2M): 5.433 | COL4A2 ΔCT (B2M) (normalized to B2M): 20.109 | CREB1 ΔCT (B2M) (normalized to B2M): 4.006 | CREB3L4 ΔCT (B2M) (normalized to B2M): 5.732 | CREB3 ΔCT (B2M) (normalized to B2M): 5.981 | CTGF ΔCT (B2M) (normalized to B2M): 14.844 | CYB561 ΔCT (B2M) (normalized to B2M): 20.698 | DDIT4 ΔCT (B2M) (normalized to B2M): 5.221 | DUSP1 ΔCT (B2M) (normalized to B2M): 8.982 | EDN1 ΔCT (B2M) (normalized to B2M): 13.379 | EHD3 ΔCT (B2M) (normalized to B2M): 12.214 | ERRFI1 ΔCT (B2M) (normalized to B2M): 13.751 | FK8PS ΔCT (B2M) (normalized to B2M): 2.028 | FOSL2 ΔCT (B2M) (normalized to B2M): 12.659 | GAPDH ΔCT (B2M) (normalized to B2M): −2.333 | GDPD1 ΔCT (B2M) (normalized to B2M): 9.000 | GHRHR ΔCT (B2M) (normalized to B2M): 17.211 | GLUL ΔCT (B2M) (normalized to B2M): 15.690 | GOT1 ΔCT (B2M) (normalized to B2M): 4.648 | H6PD ΔCT (B2M) (normalized to B2M): 6.085 | HNRPLL ΔCT (B2M) (normalized to B2M): 14.400 | HPRT1 ΔCT (B2M) (normalized to B2M): 2.893 | IL1RN ΔCT (B2M) (normalized to B2M): 14.676 | IL6 ΔCT (B2M) (normalized to B2M): 19.457 | KLF9 ΔCT (B2M) (normalized to B2M): 9.663 | KLF13 ΔCT (B2M) (normalized to B2M): 3.662 | LOX ΔCT (B2M) (normalized to B2M): 15.274 | MERTK ΔCT (B2M) (normalized to B2M): 14.008 | NFKBIA ΔCT (B2M) (normalized to B2M): 3.946 | NR3C1 ΔCT (B2M) (normalized to B2M): 3.910 | PDCD7 ΔCT (B2M) (normalized to B2M): 4.668 | PDGFRB ΔCT (B2M) (normalized to B2M): 16.050 | PDP1 ΔCT (B2M) (normalized to B2M): 6.798 | PER1 ΔCT (B2M) (normalized to B2M): 6.258 | PER2 ΔCT (B2M) (normalized to B2M): 5.275 | PIK3R1 ΔCT (B2M) (normalized to B2M): 4.966 | PLD1 ΔCT (B2M) (normalized to B2M): 18.236 | PLEKHF1 ΔCT (B2M) (normalized to B2M): 10.530 | POU2F1 ΔCT (B2M) (normalized to B2M): 5.764 | POU2F2 ΔCT (B2M) (normalized to B2M): 3.605 | RASA3 ΔCT (B2M) (normalized to B2M): 8.919 | RGS2 ΔCT (B2M) (normalized to B2M): 6.630 | RHOB ΔCT (B2M) (normalized to B2M): 14.278 | RPLP0 ΔCT (B2M) (normalized to B2M): −3.756 | SESN1 ΔCT (B2M) (normalized to B2M): 3.955 | SGK1 ΔCT (B2M) (normalized to B2M): 10.744 | SLC10A6 ΔCT (B2M) (normalized to B2M): 17.292 | SLC19A2 ΔCT (B2M) (normalized to B2M): 6.571 | SLC22A5 ΔCT (B2M) (normalized to B2M): 10.031 | SNTA1 ΔCT (B2M) (normalized to B2M): 6.240 | SPHK1 ΔCT (B2M) (normalized to B2M): 11.087 | SPSB1 ΔCT (B2M) (normalized to B2M): 8.027 | STAT5A ΔCT (B2M) (normalized to B2M): 5.001 | STAT5B ΔCT (B2M) (normalized to B2M): 3.748 | TBL1XR1 ΔCT (B2M) (normalized to B2M): 2.420 | TNF ΔCT (B2M) (normalized to B2M): 13.072 | TSC22D3 ΔCT (B2M) (normalized to B2M): 4.426 | USP2 ΔCT (B2M) (normalized to B2M): 4.617 | USPS4 ΔCT (B2M) (normalized to B2M): 7.799 | VDR ΔCT (B2M) (normalized to B2M): 7.963 | VLDLR ΔCT (B2M) (normalized to B2M): 9.700 | ZFP36 ΔCT (B2M) (normalized to B2M): 5.386 | ZHX3 ΔCT (B2M) (normalized to B2M): 5.534 | ZNF281 ΔCT (B2M) (normalized to B2M): 4.944 | RTC ΔCT (B2M) (normalized to B2M, array control, three lines): 2.565 and 2.580 and 2.599 | ADARB1 ΔΔCT (vs DMSO): 1.867 | AFF1 ΔΔCT (vs DMSO): −0.567 | AK2 ΔΔCT (vs DMSO): 0.053 | AMPD3 ΔΔCT (vs DMSO): 1.259 | ANGPTL4 ΔΔCT (vs DMSO): 0.529 | ANXA4 ΔΔCT (vs DMSO): 0.305 | ARID68 ΔΔCT (vs DMSO): 0.129 | ASPH ΔΔCT (vs DMSO): 0.524 | ATF4 ΔΔCT (vs DMSO): 0.282 | BCL6 ΔΔCT (vs DMSO): 0.397 | BMPER ΔΔCT (vs DMSO): 1.466 | CEBPA ΔΔCT (vs DMSO): −2.341 | CEBPB ΔΔCT (vs DMSO): 0.531 | COL4A2 ΔΔCT (vs DMSO): 6.804 | CREB1 ΔΔCT (vs DMSO): 0.085 | CREB3L4 ΔΔCT (vs DMSO): 0.336 | CREB3 ΔΔCT (vs DMSO): 0.061 | CTGF ΔΔCT (vs DMSO): 0.142 | CYB561 ΔΔCT (vs DMSO): 1.917 | DDIT4 ΔΔCT (vs DMSO): 0.296 | DUSP1 ΔΔCT (vs DMSO): 0.387 | EDN1 ΔΔCT (vs DMSO): 1.155 | EHD3 ΔΔCT (vs DMSO): −1.092 | ERRFI1 ΔΔCT (vs DMSO): 0.235 | FK8PS ΔΔCT (vs DMSO): −0.948 | FOSL2 ΔΔCT (vs DMSO): −0.099 | GDPD1 ΔΔCT (vs DMSO): 0.477 | GHRHR ΔΔCT (vs DMSO): −1.464 | GLUL ΔΔCT (vs DMSO): −1.434 | GOT1 ΔΔCT (vs DMSO): 0.230 | H6PD ΔΔCT (vs DMSO): 0.377 | HNRPLL ΔΔCT (vs DMSO): 3.085 | KLF9 ΔΔCT (vs DMSO): −0.019 | KLF13 ΔΔCT (vs DMSO): −0.280 | LOX ΔΔCT (vs DMSO): 0.721 | MERTK ΔΔCT (vs DMSO): 0.020 | NFKBIA ΔΔCT (vs DMSO): 0.064 | NR3C1 ΔΔCT (vs DMSO): 0.317 | PDCD7 ΔΔCT (vs DMSO): 0.021 | PDP1 ΔΔCT (vs DMSO): −0.056 | PER1 ΔΔCT (vs DMSO): 0.323 | PER2 ΔΔCT (vs DMSO): −0.358 | PIK3R1 ΔΔCT (vs DMSO): −0.202 | PLD1 ΔΔCT (vs DMSO): 0.207 | PLEKHF1 ΔΔCT (vs DMSO): −0.347 | POU2F1 ΔΔCT (vs DMSO): 0.395 | POU2F2 ΔΔCT (vs DMSO): 0.145 | RASA3 ΔΔCT (vs DMSO): 0.776 | RGS2 ΔΔCT (vs DMSO): 0.849 | RHOB ΔΔCT (vs DMSO): 0.626 | SESN1 ΔΔCT (vs DMSO): −1.262 | SGK1 ΔΔCT (vs DMSO): 2.120 | SLC10A6 ΔΔCT (vs DMSO): 1.818 | SLC19A2 ΔΔCT (vs DMSO): −0.020 | SLC22A5 ΔΔCT (vs DMSO): 0.648 | SNTA1 ΔΔCT (vs DMSO): 0.665 | SPHK1 ΔΔCT (vs DMSO): −0.581 | SPSB1 ΔΔCT (vs DMSO): −0.074 | STAT5A ΔΔCT (vs DMSO): −0.227 | STAT5B ΔΔCT (vs DMSO): 0.254 | TBL1XR1 ΔΔCT (vs DMSO): 0.032 | TNF ΔΔCT (vs DMSO): 0.753 | TSC22D3 ΔΔCT (vs DMSO): −1.741 | USP2 ΔΔCT (vs DMSO): −0.478 | USPS4 ΔΔCT (vs DMSO): 0.209 | VDR ΔΔCT (vs DMSO): −0.434 | VLDLR ΔΔCT (vs DMSO): 1.543 | ZFP36 ΔΔCT (vs DMSO): 0.225 | ZHX3 ΔΔCT (vs DMSO): −0.657 | ZNF281 ΔΔCT (vs DMSO): −0.113

Source: patent US10456407B2, “Combination therapy for treating cancer” (Epizyme, Inc., priority 2015, dated 2019)
